# Assay results published in patent publication US20260015325A1, “ALKOXY HETEROARYL- CARBOXAMIDE OR THIOAMIDE COMPOUNDS” (SYNGENTA CROP PROTECTION AG, priority 2022, published 2026).
# What was measured:
# Type in all cases: in vivo
# [1] = system: Bemisia tabaci (Cotton White Fly); test: Bemisia tabaci (Cotton White Fly): feeding/contact activity, cotton leaf discs; details: foliar, 144 h, application rate of 200 ppm, adult white flies on sprayed cotton leaf discs, 6 days after incubation, read-out: mortality
# Description: Example B1: Bemisia tabaci (Cotton White Fly): Feeding/Contact Activity
# Cotton leaf discs were placed on agar in 24-well microtiter plates and sprayed with aqueous test solutions prepared from 10′000 ppm DMSO stock solutions. After drying the leaf discs were infested with adult white flies. The samples were checked for mortality 6 days after incubation.
# [2] = system: Tetranychus urticae (Two-Spotted Spider Mite); test: whole plant or invertebrate; details: foliar, 192 h, application rate of 200 ppm, mixed population (mobile stages) on sprayed bean leaf discs, 8 days after infestation, read-out: mortality
# Description: Example B11: Tetranychus urticae (Two-Spotted Spider Mite): Feeding/Contact Activity
# Bean leaf discs on agar in 24-well microtiter plates were sprayed with aqueous test solutions prepared from 10′000 ppm DMSO stock solutions. After drying the leaf discs were infested with a mite population of mixed ages. The samples were assessed for mortality on mixed population (mobile stages) 8 days after infestation.
# [3] = system: Myzus persicae (Green Peach Aphid); test: Myzus persicae (Green Peach Aphid): intrinsic activity, sucrose solution; details: 120 h, test rate of 12 ppm, intrinsic, mixed with sucrose solution under Parafilm, 5 days after infestation, read-out: mortality
# Text: Example B8: Myzus persicae (Green Peach Aphid). Intrinsic Activity
# Test compounds prepared from 10′000 ppm DMSO stock solutions were applied by pipette into 24-well microtiter plates and mixed with sucrose solution. The plates were closed with a stretched Parafilm. A plastic stencil with 24 holes was placed onto the plate and infested pea seedlings were placed directly on the Parafilm. The infested plate was closed with a gel blotting paper and another plastic stencil and then turned upside down. The samples were assessed for mortality 5 days after infestation.
# [4] = system: Myzus persicae (Green Peach Aphid); test: Myzus persicae (Green Peach Aphid): systemic activity, pea seedlings; details: 144 h, test rate of 24 ppm, systemic, roots of infested pea seedlings in test solution, 6 days, read-out: mortality
# Description: Example B7: Myzus persicae (Green Peach Aphid). Systemic Activity
# Roots of pea seedlings infested with an aphid population of mixed ages were placed directly into aqueous test solutions prepared from 10′000 DMSO stock solutions. The samples were assessed for mortality 6 days after placing seedlings into test solutions.
# [5] = system: Myzus persicae (Green Peach Aphid); test: Myzus persicae (Green Peach Aphid): feeding/contact activity, sunflower leaf discs; details: foliar, 144 h, application rate of 200 ppm, mixed ages on sprayed sunflower leaf discs, 6 days after infestation, read-out: mortality
# Description: Example B6: Myzus persicae (Green Peach Aphid): Feeding/Contact Activity
# Sunflower leaf discs were placed onto agar in a 24-well microtiter plate and sprayed with aqueous test solutions prepared from 10′000 ppm DMSO stock solutions. After drying, the leaf discs were infested with an aphid population of mixed ages. The samples were assessed for mortality 6 days after infestation.
structure (smiles),measurement,setting,value
"CC(C)C(=O)OCN([C@@H](C)COc1cnc(Cl)c(C(=O)NC2CC2)c1)S(=O)(=O)C(F)(F)F [Compound P-13, [[(1S)-2-[[6-chloro-5-(cyclopropylcarbamoyl)-3-pyridyl]oxy]-1-methyl-ethyl]-(trifluoromethylsulfonyl)amino]methyl 2-methylpropanoate]",mortality at 200 ppm,[1],≥ 80%
same,mortality at 200 ppm,[2],≥ 80%
same,mortality at 12 ppm,[3],≥ 80%
same,mortality at 24 ppm,[4],≥ 80%
same,mortality at 200 ppm,[5],≥ 80%
"C[C@@H](COc1cnc(Cl)c(C(=O)Nc2ccccc2)c1)NS(=O)(=O)C(F)(F)F [Compound P-56, 2-chloro-N-phenyl-5-[(2S)-2-(trifluoromethylsulfonylamino)propoxy]pyridine-3-carboxamide]",mortality at 200 ppm,[1],≥ 80%
same,mortality at 200 ppm,[2],≥ 80%
"Cc1cc(Cl)cnc1NC(=O)c1cc(OC[C@H](C)NS(=O)(=O)C(F)(F)F)cnc1Cl [Compound P-20, 2-chloro-N-(5-chloro-3-methyl-2-pyridyl)-5-[(2S)-2-(trifluoromethylsulfonylamino)propoxy]pyridine-3-carboxamide]",mortality at 200 ppm,[1],≥ 80%
same,mortality at 200 ppm,[2],≥ 80%
same,mortality at 12 ppm,[3],≥ 80%
"Cc1ncc(OC[C@H](C)NS(=O)(=O)C(F)(F)F)cc1C(=O)NCc1ccc(Cl)cn1 [Compound P-28, N-[(5-chloro-2-pyridyl)methyl]-2-methyl-5-[(2S)-2-(trifluoromethylsulfonylamino)propoxy]pyridine-3-carboxamide]",mortality at 200 ppm,[1],≥ 80%
same,mortality at 24 ppm,[4],≥ 80%
"C[C@@H](COc1cnc(Cl)c(C(=O)NC2CC2)c1)NS(=O)(=O)C(F)F [Compound P-10, 2-chloro-N-cyclopropyl-5-[(2S)-2-(difluoromethylsulfonylamino)propoxy]pyridine-3-carboxamide]",mortality at 200 ppm,[2],≥ 80%
same,mortality at 12 ppm,[3],≥ 80%
same,mortality at 24 ppm,[4],≥ 80%
"C[C@@H](COc1cc(C(=O)NC2CC2)c(Cl)cn1)NS(=O)(=O)C(F)(F)F [Compound P-87, 5-chloro-N-cyclopropyl-2-[(2S)-2-(trifluoromethylsulfonylamino)propoxy]pyridine-4-carboxamide]",mortality at 200 ppm,[2],≥ 80%
same,mortality at 12 ppm,[3],≥ 80%
same,mortality at 200 ppm,[5],≥ 80%
"C[C@@H](COc1cnc(Cl)c(C(=O)NC(C)(C)C#N)c1)NS(=O)(=O)C(F)(F)F [Compound P-57, 2-chloro-N-(1-cyano-1-methyl-ethyl)-5-[(2S)-2-(trifluoromethylsulfonylamino)propoxy]pyridine-3-carboxamide]",mortality at 200 ppm,[1],≥ 80%
same,mortality at 200 ppm,[2],≥ 80%
same,mortality at 12 ppm,[3],≥ 80%
same,mortality at 24 ppm,[4],≥ 80%
same,mortality at 200 ppm,[5],≥ 80%
"Cc1ncc(OC[C@H](C)NS(=O)(=O)C(F)(F)F)cc1C(=O)NC12CC(C1)C2 [Compound P-26, N-(1-bicyclo[1.1.1]pentanyl)-2-methyl-5-[(2S)-2-(trifluoromethylsulfonylamino)propoxy]pyridine-3-carboxamide]",mortality at 200 ppm,[2],≥ 80%
same,mortality at 12 ppm,[3],≥ 80%
same,mortality at 24 ppm,[4],≥ 80%
same,mortality at 200 ppm,[5],≥ 80%
"Cc1ncc(OC[C@H](C)NS(=O)(=O)C(F)(F)F)cc1C(=O)NC(C)C1CC1 (stereo partly drawn) [Compound P-31, N-(1-cyclopropylethyl)-2-methyl-5-[(2S)-2-(trifluoromethylsulfonylamino)propoxy]pyridine-3-carboxamide]",mortality at 200 ppm,[1],≥ 80%
same,mortality at 200 ppm,[2],≥ 80%
"COCN([C@@H](C)COc1cc(C(=O)NC2(C#N)CC2)c(Br)cn1)S(=O)(=O)C(F)(F)F [Compound P-82, 5-bromo-N-(1-cyanocyclopropyl)-2-[(2S)-2-[methoxymethyl(trifluoromethylsulfonyl)amino]propoxy]pyridine-4-carboxamide]",mortality at 200 ppm,[1],≥ 80%
same,mortality at 200 ppm,[2],≥ 80%
"C#CCNC(=O)c1cc(OC[C@H](C)NS(=O)(=O)C(F)(F)F)cnc1Cl [Compound P-52, 2-chloro-N-prop-2-ynyl-5-[(2S)-2-(trifluoromethylsulfonylamino)propoxy]pyridine-3-carboxamide]",mortality at 200 ppm,[1],≥ 80%
same,mortality at 200 ppm,[2],≥ 80%
same,mortality at 200 ppm,[5],≥ 80%
"C[C@@H](COc1cnc(Cl)c(C(=O)NC2CON(CC(F)(F)F)C2=O)c1)NS(=O)(=O)C(F)(F)F (stereo partly drawn) [Compound P-54, 2-chloro-N-[3-oxo-2-(2,2,2-trifluoroethyl)isoxazolidin-4-yl]-5-[(2S)-2-(trifluoromethylsulfonylamino)propoxy]pyridine-3-carboxamide]",mortality at 200 ppm,[1],≥ 80%
same,mortality at 12 ppm,[3],≥ 80%
same,mortality at 24 ppm,[4],≥ 80%
same,mortality at 200 ppm,[5],≥ 80%
"C[C@@H](COc1cc(C(=O)NC2(C#N)CC2)c(Br)cn1)NS(=O)(=O)C(F)(F)F [Compound P-86, 5-bromo-N-(1-cyanocyclopropyl)-2-[(2S)-2-(trifluoromethylsulfonylamino)propoxy]pyridine-4-carboxamide]",mortality at 200 ppm,[1],≥ 80%
"C[C@@H](COc1cnc(Cl)c(C(=O)NC2CC2)c1)NS(=O)(=O)C(Cl)Cl [Compound P-4, 2-chloro-N-cyclopropyl-5-[(2S)-2-(dichloromethylsulfonylamino)propoxy]pyridine-3-carboxamide]",mortality at 200 ppm,[2],≥ 80%
same,mortality at 12 ppm,[3],≥ 80%
same,mortality at 200 ppm,[5],≥ 80%
"C[C@@H](COc1cc(C(=O)NC2CC2)c(Br)cn1)NS(=O)(=O)C(F)(F)F [Compound P-83, 5-bromo-N-cyclopropyl-2-[(2S)-2-(trifluoromethylsulfonylamino)propoxy]pyridine-4-carboxamide]",mortality at 12 ppm,[3],≥ 80%
same,mortality at 24 ppm,[4],≥ 80%
same,mortality at 200 ppm,[5],≥ 80%
"Cc1cnc(OC[C@H](C)NS(=O)(=O)C(F)(F)F)cc1C(=O)NC1CCN(CC(F)(F)F)C1=O (stereo partly drawn) [Compound P-70, 5-methyl-N-[2-oxo-1-(2,2,2-trifluoroethyl)pyrrolidin-3-yl]-2-[(2S)-2-(trifluoromethylsulfonylamino)propoxy]pyridine-4-carboxamide]",mortality at 200 ppm,[1],≥ 80%
same,mortality at 200 ppm,[5],≥ 80%
"CC(NC(=O)c1cc(OC[C@H](C)NS(=O)(=O)C(F)(F)F)cnc1Cl)C1CC1 (stereo partly drawn) [Compound P-45, 2-chloro-N-(1-cyclopropylethyl)-5-[(2S)-2-(trifluoromethylsulfonylamino)propoxy]pyridine-3-carboxamide]",mortality at 200 ppm,[2],≥ 80%
same,mortality at 12 ppm,[3],≥ 80%
same,mortality at 200 ppm,[5],≥ 80%
"C[C@@H](COc1cnc(Cl)c(C(=O)NCC2(C#N)CC2)c1)NS(=O)(=O)C(F)(F)F [Compound P-46, 2-chloro-N-[(1-cyanocyclopropyl)methyl]-5-[(2S)-2-(trifluoromethylsulfonylamino)propoxy]pyridine-3-carboxamide]",mortality at 200 ppm,[1],≥ 80%
same,mortality at 200 ppm,[5],≥ 80%
"O=C(NC1CC1)c1cc(OCCNS(=O)(=O)C(F)(F)F)cnc1Cl [Compound P-17, 2-chloro-N-cyclopropyl-5-[2-(trifluoromethylsulfonylamino)ethoxy]pyridine-3-carboxamide]",mortality at 200 ppm,[1],≥ 80%
same,mortality at 12 ppm,[3],≥ 80%
same,mortality at 200 ppm,[5],≥ 80%
